Measurements reported in article PMC4767940 (PLoS ONE, 2016).

Key:
CD8+ T cells = details: cited from earlier work
[1] = target: H-2D^b on the surface of RMA-S cells (mouse (endogenous in RMA/S)); experiment: flow cytometry on cells

Molecule	formation of memory CD8+ T cell responses (CD8+ T cells)	half-life of the peptide on H-2D^b [1]
O=CC[C@@H](O)[C@H](O)[C@H](O)CO [2-deoxyglucose]	augments the formation of memory CD8+ T cell responses	
GP33-41 peptide (wildtype GP33 epitope of LCMV)		> 5 h
